Experimental data taken from patent US20100273816A1, “Quinazoline Compounds” (priority 2007, published 2010).

How the values were obtained:
[1] = biological target: T1, human LXRα (Homo sapiens, UniProt Q13133); experiment: Ligand-binding test procedure for human LXRα (3H T0901317 tracer, flash plates); settings: biotinylated hLXRα from E. coli extract, +4° C. over night, read-out: hLXRa binding assay Mean IC50
T1 construct: biotin (biotinylated); made in house; host or cells: E. coli (crude extract)
T1 sequence (Q13133 1-447): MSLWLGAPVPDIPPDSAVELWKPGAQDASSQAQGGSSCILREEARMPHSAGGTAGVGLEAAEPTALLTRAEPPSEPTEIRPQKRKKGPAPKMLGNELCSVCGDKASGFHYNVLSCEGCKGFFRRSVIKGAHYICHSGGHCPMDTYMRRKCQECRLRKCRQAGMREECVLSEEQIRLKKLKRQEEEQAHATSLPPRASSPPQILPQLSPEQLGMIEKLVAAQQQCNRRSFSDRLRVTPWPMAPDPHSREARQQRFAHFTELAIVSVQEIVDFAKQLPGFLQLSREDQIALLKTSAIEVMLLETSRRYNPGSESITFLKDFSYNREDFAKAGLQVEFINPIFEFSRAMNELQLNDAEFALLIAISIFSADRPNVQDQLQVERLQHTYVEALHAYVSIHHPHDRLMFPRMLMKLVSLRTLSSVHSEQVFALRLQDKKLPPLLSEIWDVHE
Experimental: II. Ligand-Binding Test Procedure for Human LXRα.
(§1) Buffer: 100 mM KCl, 100 mM TRIS (pH 7.4 at +4° C.), 8.6% glycerol, 0.1 mM PMSF*, 2 mM MTG*, 0.2% CHAPS (* not used in wash buffer)
Receptor source: E. coli extract from cells expressing biotinylated hLXRα. Extract was made in a similar buffer as above, but with 50 mM TRIS.
(§2) Washed streptavidin and coated flash plates with wash buffer.
(§3) Diluted receptor extract to give Bmax ˜4000 cpm and add to the wells.
(§4) Wrapped the plates in aluminum foil and stored them at +4° C. over night.
(§5) Made a dilution series in DMSO of the test ligands.
(§6) Made a 5 nM solution of the radioactive tracer in buffer.
Mixed 250 μl diluted tracer with 5 μl of the test ligand from each concentration of the dilution series.
(§7) Washed the receptor-coated flash plates.
(§8) Added 200 μl per well of the ligand/radiolabel mixture to the receptor-coated flash plates.
(§9) Wrapped the plates in aluminum foil and incubate at +4° C. over night.
(§10) Aspirated wells, and wash the flashed plates. Sealed the plate.
(§11) Measured the remaining radioactivity in the plate.

[2] = biological target: T2, human LXRβ (Homo sapiens, UniProt P55055); experiment: Ligand-binding test procedure for human LXRβ (3H T0901317 tracer, flash plates); settings: biotinylated hLXRβ from E. coli extract, +4° C. over night, read-out: hLXRB binding assay Mean IC50
T2 construct: biotin (biotinylated); made in house; host or cells: E. coli (crude extract)
T2 sequence (P55055 1-460): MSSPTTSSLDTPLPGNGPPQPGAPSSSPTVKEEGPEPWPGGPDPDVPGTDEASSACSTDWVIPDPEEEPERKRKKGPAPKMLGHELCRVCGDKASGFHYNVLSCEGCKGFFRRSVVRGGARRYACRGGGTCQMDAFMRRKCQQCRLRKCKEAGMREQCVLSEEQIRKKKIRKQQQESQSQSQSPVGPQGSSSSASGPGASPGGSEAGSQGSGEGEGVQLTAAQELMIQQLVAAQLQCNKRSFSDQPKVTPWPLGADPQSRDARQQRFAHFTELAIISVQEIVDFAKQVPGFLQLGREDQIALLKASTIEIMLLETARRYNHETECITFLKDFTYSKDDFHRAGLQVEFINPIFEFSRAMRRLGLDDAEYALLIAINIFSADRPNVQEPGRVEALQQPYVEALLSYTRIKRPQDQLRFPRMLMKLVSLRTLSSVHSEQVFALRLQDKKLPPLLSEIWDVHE
Experimental: I. Ligand-Binding Test Procedure for Human LXRβ.
as §1
Receptor source: E. coli extract from cells expressing biotinylated hLXRβ. Extract was made in a similar buffer as above, but with 50 mM TRIS.
as §2, §3, §4, §5, §6
Mixed 250 μl diluted tracer with 50 of the test ligand from each concentration of the dilution series.
as §7, §8, §9, §10, §11

CCCc1nc(-c2cccc(-c3cccc(S(C)(=O)=O)c3)c2)c2cccc(C(F)(F)F)c2n1 [Example 41, 4-[3′-(methylsulfonyl)biphenyl-3-yl]-2-propyl-8-(trifluoromethyl)quinazoline]
IC50 [1]: > 1000 nM
IC50 [2]: 175 nM

CCS(=O)(=O)c1cc(F)cc(Oc2ccc(F)c(-c3ncnc4c(Cl)cccc34)c2)c1 [Example 65, 8-chloro-4-{5-[3-(ethylsulfonyl)-5-fluorophenoxy]-2-fluorophenyl}quinazoline]
IC50 [1]: 2950 nM
IC50 [2]: 152 nM

CCS(=O)(=O)c1cccc(Oc2ccc(Cl)c(-c3nc(C)nc4c(C(F)(F)F)cccc34)c2)c1 [Example 59, 4-{2-chloro-5-[3-(ethylsulfonyl)phenoxy]phenyl}-2-methyl-8-(trifluoromethyl)quinazoline]
IC50 [1]: 2370 nM
IC50 [2]: 19 nM

CC(C)S(=O)(=O)c1cccc(Oc2ccc(Cl)c(-c3ncnc4c(C(F)(F)F)cccc34)c2)c1 [Example 51, 4-{2-chloro-5-[3-(isopropylsulfonyl)phenoxy]phenyl}-8-(trifluoromethyl)quinazoline]
IC50 [1]: 119 nM
IC50 [2]: 2 nM

CS(=O)(=O)c1cccc(-c2cccc(-c3nc(C4CC4)nc4c(C(F)(F)F)cccc34)c2)c1 [Example 76, 2-cyclopropyl-4-[3′-(methylsulfonyl)biphenyl-3-yl]-8-(trifluoromethyl)quinazoline]
IC50 [1]: 714 nM
IC50 [2]: 153 nM

CS(=O)(=O)c1ccc(Oc2cccc(-c3ncnc4c(C(F)(F)F)cccc34)c2)cc1 [Example 10, 4-{3-[4-(methylsulfonyl)phenoxy]phenyl}-8-(trifluoromethyl)quinazoline]
IC50 [1]: 26100 nM
IC50 [2]: 3620 nM

CS(=O)(=O)c1cccc(COc2ccc(F)c(-c3ncnc4c(C(F)(F)F)cccc34)c2)c1 [Example 56, 4-(2-fluoro-5-{[3-(methylsulfonyl)benzyl]oxy}phenyl)-8-(trifluoromethyl)quinazoline]
IC50 [1]: 787 nM
IC50 [2]: 44 nM

CC(C)S(=O)(=O)c1cccc(Oc2ccc(F)c(-c3ncnc4c(Cl)cccc34)c2)c1 [Example 68, 8-chloro-4-(2-fluoro-5-{[3-(1-methylethyl)sulfonyl]phenoxy}phenyl)quinazoline]
IC50 [1]: 597 nM
IC50 [2]: 15 nM

O=S(=O)(CCCO)c1cccc(Oc2ccc(F)c(-c3ncnc4c(C(F)(F)F)cccc34)c2)c1 [Example 93, 3-[(3-{4-fluoro-3-[8-(trifluoromethyl)quinazolin-4-yl]phenoxy}phenyl)sulfonyl]propan-1-ol]
IC50 [1]: 714 nM
IC50 [2]: 47 nM

CS(=O)(=O)c1cccc(Oc2ccc(F)c(-c3ncnc4c(C(F)(F)F)cccc34)c2)c1 [Example 52, 4-{2-fluoro-5-[3-(methylsulfonyl)phenoxy]phenyl}-8-(trifluoromethyl)quinazoline]
IC50 [1]: 284 nM
IC50 [2]: 14 nM

CCS(=O)(=O)c1ccc(Oc2cccc(-c3ncnc4c(C(F)(F)F)cccc34)c2)cc1 [Example 11, 4-{3-[4-(ethylsulfonyl)phenoxy]phenyl}-8-(trifluoromethyl)quinazoline]
IC50 [1]: > 1000 nM
IC50 [2]: 2240 nM

O=S(=O)(CCCO)c1cccc(Oc2cccc(-c3ncnc4c(C(F)(F)F)cccc34)c2)c1 [Example 18, 3-[(3-{3-[8-(trifluoromethyl)quinazolin-4-yl]phenoxy}phenyl)sulfonyl]propan-1-ol]
IC50 [1]: 3540 nM
IC50 [2]: 412 nM

CCS(=O)(=O)c1cccc(Oc2ccc(F)c(-c3ncnc4c(Cl)cccc34)c2)c1 [Example 67, 8-chloro-4-{2-fluoro-5-[3-(ethylsulfonyl)phenoxy]phenyl}quinazoline]
IC50 [1]: 712 nM
IC50 [2]: 36 nM

CC(C)CS(=O)(=O)c1cccc(Oc2cccc(-c3ncnc4c(C(F)(F)F)cccc34)c2)c1 [Example 16, 4-{3-[3-(isobutylsulfonyl)phenoxy]phenyl}-8-(trifluoromethyl)quinazoline]
IC50 [1]: > 1000 nM
IC50 [2]: > 1000 nM

CS(=O)(=O)c1cccc(Oc2ccc(Cl)c(-c3ncnc4c(C(F)(F)F)cccc34)c2)c1 [Example 49, 4-{2-chloro-5-[3-(methylsulfonyl)phenoxy]phenyl}-8-(trifluoromethyl)quinazoline]
IC50 [1]: 177 nM
IC50 [2]: 5 nM

Cc1nc(-c2cc(Oc3cccc(S(=O)(=O)C(C)C)c3)ccc2Cl)c2cccc(C(F)(F)F)c2n1 [Example 60, 4-{2-chloro-5-[3-(isopropylsulfonyl)phenoxy]phenyl}-2-methyl-8-(trifluoromethyl)quinazoline]
IC50 [1]: 524 nM
IC50 [2]: 16 nM

Cc1nc(-c2cc(Oc3cccc(S(C)(=O)=O)c3)ccc2Cl)c2cccc(C(F)(F)F)c2n1 [Example 58, 4-{2-chloro-5-[3-(methylsulfonyl)phenoxy]phenyl}-2-methyl-8-(trifluoromethyl)quinazoline]
IC50 [1]: 1360 nM
IC50 [2]: 20 nM

CCS(=O)(=O)c1cccc(Oc2ccc(F)c(-c3ncnc4c(C(F)(F)F)cccc34)c2)c1 [Example 53, 4-{5-[3-(ethylsulfonyl)phenoxy]-2-fluorophenyl}-8-(trifluoromethyl)quinazoline]
IC50 [1]: 233 nM
IC50 [2]: 8 nM

CCS(=O)(=O)c1cc(F)cc(Oc2ccc(Cl)c(-c3nc(C)nc4c(C(F)(F)F)cccc34)c2)c1 [Example 62, 4-{2-chloro-5-[3-(ethylsulfonyl)-5-fluorophenoxy]phenyl}-2-methyl-8-(trifluoromethyl)quinazoline]
IC50 [1]: 1430 nM
IC50 [2]: 63 nM

CCS(=O)(=O)c1cccc(Oc2cccc(-c3ncnc4c(C(F)(F)F)cccc34)c2)c1 [Example 5, 4-{3-[3-(ethylsulfonyl)phenoxy]phenyl}-8-(trifluoromethyl)quinazoline]
IC50 [1]: 1570 nM
IC50 [2]: 101 nM

CC(C)c1nc(-c2cccc(-c3cccc(S(C)(=O)=O)c3)c2)c2cccc(C(F)(F)F)c2n1 [Example 42, 2-isopropyl-4-[3′-(methylsulfonyl)biphenyl-3-yl]-8-(trifluoromethyl)quinazoline]
IC50 [1]: 3250 nM
IC50 [2]: 452 nM

O=S(=O)(CCCO)c1ccc(Oc2cccc(-c3ncnc4c(C(F)(F)F)cccc34)c2)cc1 [Example 19, 3-[(4-{3-[8-(trifluoromethyl)quinazolin-4-yl]phenoxy}phenyl)sulfonyl]propan-1-ol]
IC50 [1]: 64800 nM
IC50 [2]: 19100 nM

CS(=O)(=O)c1cc(Cl)cc(Oc2ccc(F)c(-c3ncnc4c(C(F)(F)F)cccc34)c2)c1 [Example 57, 4-{5-[3-chloro-5-(methylsulfonyl)phenoxy]-2-fluorophenyl}-8-(trifluoromethyl)quinazoline]
IC50 [1]: 2340 nM
IC50 [2]: 214 nM

CC(C)S(=O)(=O)c1cccc(Oc2cccc(-c3ncnc4c(C(F)(F)F)cccc34)c2)c1 [Example 6, 4-{3-[3-(isopropylsulfonyl)phenoxy]phenyl}-8-(trifluoromethyl)quinazoline]
IC50 [1]: 1020 nM
IC50 [2]: 63 nM

COc1cccc2c(-c3cc(Oc4cccc(S(C)(=O)=O)c4)ccc3Cl)ncnc12 [Example 77, 4-{2-chloro-5-[3-(methylsulfonyl)phenoxy]phenyl}-8-methoxyquinazoline]
IC50 [1]: 10400 nM
IC50 [2]: 344 nM

O=S(=O)(CCCOC1CCCCO1)c1cccc(Oc2ccc(F)c(-c3ncnc4c(Cl)cccc34)c2)c1 (stereo not drawn) [Example 69, 8-chloro-4-[2-fluoro-5-(3-{[3-(tetrahydro-2H-pyran-2-yloxy)propyl]sulfonyl}phenoxy)phenyl]quinazoline]
IC50 [1]: 265 nM
IC50 [2]: 95 nM

CS(=O)(=O)c1cccc(Oc2ccc(Cl)c(-c3ncnc4c(Cl)cccc34)c2)c1 [Example 78, 8-chloro-4-{2-chloro-5-[3-(methylsulfonyl)phenoxy]phenyl}quinazoline]
IC50 [1]: 325 nM
IC50 [2]: 26 nM
